Non-standard residues stand in square brackets, D forms with d. Residues, ends and D or L forms follow the SMILES beside them. *: point of attachment. Octanoyl = CCCCCCCC(=O)*
Tests used:
[1] = system: E. coli CFT073 ATCC 700928 and/or E. coli Nissle 1917; experiment: Cell-based assay with ClbP with LCMS, ClbP positive strain; conditions: for % Remaining in ClbP Positve Relative to Media-Only: ClbP-encoding E. coli, 10 μM compound, 37° C., 20 h; for Difference between the ClbP Positive and ClbP Negative release profiles: conclusion from Table 4
How it was run: (§1)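 Compound (10 μM final) incubated 20 h at 37° C, aerobically, with 1:40-diluted overnight cultures of ClbP-positive E. coli or negative BL21(DE3), in duplicate, alongside uninoculated LB. Remaining parent quantified by LC-MS/MS (MRM) after acetonitrile quench, expressed as percent of media-alone.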

WT ClbP = experiment: Assay with purified ClbP protein (LCMS); format: biochemical, E. coli; conditions: 20 μM WT ClbP, room temperature, 24 h
Description: This example is representative of the method described in Example 91 the soluble peptidase domain (amino acids 38 to 375) of ClbP or the catalytically inert mutant S95A was cloned into pET28a using previously defined boundaries as a starting point (Brotherton, J. Am. Chem. Soc., 135:3359-3362, 2013).
WT ClbP or S95A ClbP was isolated as an N-terminally tagged HiS6-SUMO1-fusion protein from […] using E. coli BL21(DE3)RIPL to express the protein. The cells were lysed in 30 mM Tris pH 8.0, 300 mM NaCl, 10% (v/v) glycerol, benzonase (Sigma-Millipore), lysozyme, B-per (ThermoFisher), and Y-per (ThermoFisher). The lysate was clarified via centrifugation (13,000 g, 20 min), and the supernatant was incubated with HiBond Ni-NTA agarose (5 mL). The resin was subsequently washed with wash buffer (30 mM Tris pH 7.5, 250 mM NaCl, 10 mM imidazole, 3% (v/v) glycerol, and 2 mM TCEP). The resin was incubated at 30° C. for 1 h with 1.4 mg ULP1 protease. The resin was then washed with an additional fraction of wash buffer. Centrifuge filtration was used to concentrate the protein, and the concentrated protein was subsequently applied to a 16/600 Superdex 200 size exclusion column with an isocratic elution of 25 mM HEPES, 25 mM Tris pH 7.4, 325 mM NaCl, 10 mM KCl and 3% (v/v) glycerol at a flow rate of […]. The fractions containing the protein were determined by SDS-PAGE, combined, and concentrated by centrifuge filtration. 3 mM TCEP was added to the concentrated protein, which was then aliquoted, flash frozen in liquid N2, and stored at −80° C.
This example is representative of the method described in Example D, ClbP was incubated with test compounds in an in vitro assay. In a typical assay, 0, 1, or 20 μM purified WT or S95A ClbP was incubated with 100 or 500 μM compound in reaction buffer (50 mM Tris-HCl pH 7.5, 37.5 mM NaCl) at room temperature for 24 h. The total volume of this reaction was 150 μL.
After 24 h, 2 volumes of acetonitrile (300 μL) were added to the reaction to quench the solution.
The reaction was centrifuged (4,000 g, 15 min), and then the supernatant was analyzed by LCMS. 5 μL of the supernatant was injected onto an Acquity UPLC BEH C18 1.7 μm 2.1×100 column. Buffer A was 0.1% (v/v) formic acid in water and buffer B was 0.1% (v/v) formic acid in acetonitrile. The flow rate was 0.5 mL/min. The initial % B was 10, which was held for 30 s then ramped up to 90% B over 3 min, held at 90% B for 1 min, ramped down to 10% B over 15 s, and then held at 10% B for 15 s. The UV-Vis spectrum from 210-400 nm was monitored with 3.6 nm resolution. Positive and negative mode ESI were monitored from 100-1000 m/z with a 20 V cone voltage at 5 Hz sampling frequency in centroid collection.
The relative starting material remaining in the WT ClbP reaction was determined by LCMS and then compared to the residual starting material in the no-enzyme and catalytically inert enzyme (S95A ClbP) reactions. In an ideal case, the amount of residual starting material in the WT ClbP reaction was <25% of the amount in the S95A ClbP and no-enzyme conditions. In an acceptable case, the amount of residual starting material in the WT ClbP reaction was 25-75% of the amount in the S95A ClbP and no-enzyme conditions. In a non-preferred case, the amount of residual starting material in the WT ClbP reaction was >75% of the amount in the S95A ClbP and no-enzyme conditions.
Formation of the anticipated product was likewise quantified by LCMS analysis and confirmed by coelution with an external product standard. In an ideal case, the amount of product formed in the WT ClbP reaction corresponded to >75% of the theoretical maximum. In an acceptable case, the amount of product formed in the WT ClbP reaction corresponded to 25-75% of the theoretical maximum. In a non-preferred case, the amount of product formed in the WT ClbP reaction corresponded to <25% of the theoretical maximum.

E. coli BL21(DE3) = experiment: Cell-based assay with ClbP with LCMS, ClbP negative strain; conditions: 10 μM compound, 37° C., 20 h
How it was run: as §1

Row | Structure (SMILES) | % Remaining in ClbP Positve Relative to Media-Only [1] | Status (compound remaining in WT ClbP reaction relative to no-enzyme control) (WT ClbP; 500 μM compound) | % Remaining in ClbP Negative Relative to Media-Only (E. coli BL21(DE3)) | Status (compound remaining in WT ClbP reaction relative to no-enzyme control) (WT ClbP; 100 μM compound) | Difference between the ClbP Positive and ClbP Negative release profiles [1]
1 | CCCCCCCC(=O)N[C@H](CCCNC(=N)N)C(=O)N[C@@H](C)C(=O)OC [Example 11, Methyl octanoyl-D-arginyl-L-alaninate] (Octanoyl-[dR]-Ala-OMe) | + (between 25-75% compound remaining in the 20 μM WT ClbP reaction relative to the no-enzyme control) | − (>75% compound remaining in the 20 μM WT ClbP reaction relative to the no-enzyme control) | − (>75% compound remaining in the 20 μM WT ClbP reaction relative to the no-enzyme control) | – | –
2 | CCCCCCCC(=O)N[C@H](CCC(N)=O)C(=O)N[C@@H](C)C(=O)OC [Example 10, Methyl octanoyl-D-glutaminyl-L-alaninate] (Octanoyl-[dQ]-Ala-OMe) | + (between 25-75% compound remaining in the 20 μM WT ClbP reaction relative to the no-enzyme control) | − (>75% compound remaining in the 20 μM WT ClbP reaction relative to the no-enzyme control) | + (between 25-75% compound remaining in the 20 μM WT ClbP reaction relative to the no-enzyme control) | – | –
3 | COC(=O)[C@H](C)NC(=O)[C@@H](CC(N)=O)NC(=O)[C@@H](C)c1ccc2cc(OC)ccc2c1 [Example 18, Methyl ((S)-2-(6-methoxynaphthalen-2-yl)propanoyl)-D-asparaginyl-L-alaninate] | + (between 25-75% compound remaining in the 20 μM WT ClbP reaction relative to the no-enzyme control) | – | + (between 25-75% compound remaining in the 20 μM WT ClbP reaction relative to the no-enzyme control) | ++ (<25% compound remaining in the 20 μM WT ClbP reaction relative to the control) | –
4 | CCCCCCCCCCCCCC(=O)N[C@H](CC(N)=O)C(=O)N[C@@H](C)CCC(=O)O[C@]1(CC)C(=O)OCc2c1cc1n(c2=O)Cc2c-1nc1ccc(O)cc1c2CC [Example 35, (S)-4,11-diethyl-9-hydroxy-3,14-dioxo-3,4,12,14-tetrahydro-1H-pyrano[3′,4′:6,7]indolizino[1,2-b]quinolin-4-yl (S)-4-((R)-4-amino-4-oxo-2-tetradecanamidobutanamido)pentanoate] | + (between 25-75% compound remaining in the 20 μM WT ClbP reaction relative to the no-enzyme control) | – | − (>75% compound remaining in the 20 μM WT ClbP reaction relative to the no-enzyme control) | – | particularly favorable difference
5 | CCCCCCCCCCCCCC(=O)N[C@H](CC(N)=O)C(=O)Nc1ccc(COC)cc1 [Example 22, (R)—N1-(4-(methoxymethyl)phenyl)-2-tetradecanamidosuccinamide] | − (>75% compound remaining in the 20 μM WT ClbP reaction relative to the no-enzyme control) | – | − (>75% compound remaining in the 20 μM WT ClbP reaction relative to the no-enzyme control) | + (between 25-75% compound remaining in the 20 μM WT ClbP reaction relative to the no-enzyme control) | –
6 | CCCCCCCC(=O)N[C@@H](CC(N)=O)C(=O)N[C@@H](C)C(=O)OC [Example 4, Methyl octanoyl-L-asparaginyl-L-alaninate] (Octanoyl-Asn-Ala-OMe) | ++ (<25% compound remaining in the 20 μM WT ClbP reaction relative to the control) | − (>75% compound remaining in the 20 μM WT ClbP reaction relative to the no-enzyme control) | ++ (<25% compound remaining in the 20 μM WT ClbP reaction relative to the control) | – | –
7 | CCCCCCCC(=O)N[C@H](CC(N)=O)C(=O)N[C@H](C)C(=O)OC [Example 5, Methyl octanoyl-D-asparaginyl-D-alaninate] (Octanoyl-[dN]-[dA]-OMe) | ++ (<25% compound remaining in the 20 μM WT ClbP reaction relative to the control) | – | − (>75% compound remaining in the 20 μM WT ClbP reaction relative to the no-enzyme control) | ++ (<25% compound remaining in the 20 μM WT ClbP reaction relative to the control) | particularly favorable difference
8 | CCCCCCCC(=O)N[C@H](CC(N)=O)C(=O)N[C@H](C(=O)OC)C(C)C [Example 6, Methyl octanoyl-D-asparaginyl-L-valinate] (Octanoyl-[dN]-Val-OMe) | ++ (<25% compound remaining in the 20 μM WT ClbP reaction relative to the control) | – | + (between 25-75% compound remaining in the 20 μM WT ClbP reaction relative to the no-enzyme control) | ++ (<25% compound remaining in the 20 μM WT ClbP reaction relative to the control) | –
9 | CCCCCCCC(=O)N[C@H](CC(N)=O)C(=O)N[C@@H](CC(C)C)C(=O)OC [Example 7, Methyl octanoyl-D-asparaginyl-L-leucinate] (Octanoyl-[dN]-Leu-OMe) | + (between 25-75% compound remaining in the 20 μM WT ClbP reaction relative to the no-enzyme control) | – | + (between 25-75% compound remaining in the 20 μM WT ClbP reaction relative to the no-enzyme control) | ++ (<25% compound remaining in the 20 μM WT ClbP reaction relative to the control) | –
10 | CCCCCCCCCCCCCC(=O)N[C@H](CC(N)=O)C(=O)NCCCC(=O)OC [Example 20, Methyl (R)-4-(4-amino-4-oxo-2-tetradecanamidobutanamido)butanoate] | + (between 25-75% compound remaining in the 20 μM WT ClbP reaction relative to the no-enzyme control) | – | − (>75% compound remaining in the 20 μM WT ClbP reaction relative to the no-enzyme control) | − (>75% compound remaining in the 20 μM WT ClbP reaction relative to the no-enzyme control) | –
11 | CCCCCCCC(=O)N[C@H](CC(N)=O)C(=O)NCCN(C)C(=O)Oc1ccc2c(C)cc(=O)oc2c1 [Example 70, 4-methyl-2-oxo-2H-chromen-7-yl (R)-(2-(4-amino-2-octanamido-4-oxobutanamido)ethyl)(methyl)carbamate] | + (between 25-75% compound remaining in the 20 μM WT ClbP reaction relative to the no-enzyme control) | – | − (>75% compound remaining in the 20 μM WT ClbP reaction relative to the no-enzyme control) | – | particularly favorable difference

Reference: patent US11998610B2, “Conjugates and methods of using the same” (Flagship Pioneering Innovations V, Inc., priority 2018, dated 2024)
